Results from PubChem BioAssay AID248 (DTP/NCI, 2004).
“And” between values parts separate entries of the source, which are not always exact repeats. Identical values can stand only once. Toxic doses and inconclusive results are not listed.

System: L1210 leukemia ip in BDF1 mice, survival T/C
Assay: NCI In Vivo Anticancer Drug Screen. Data for tumor model L1210 Leukemia (intraperitoneal) in B6D2F1 (BDF1) mice
Settings: higher = longer survival
Summary of the method: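 Tumor cells were implanted, animals were treated, and survival was followed. The result divides the treated measurement by the vehicle-control measurement.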

[1] = endpoint: mean survival time, dose: 100.0 mg/kg/injection, schedule: Q04DX003 (ip), vehicle: Klucel (hydroxypropylcellulose) (HPC)
[2] = endpoint: mean survival time, dose: 100.0 mg/kg/injection, schedule: Q04DX003 (ip), vehicle: saline with Tween-80
[3] = endpoint: mean survival time, dose: 200.0 mg/kg/injection, schedule: Q04DX003 (ip), vehicle: Klucel (hydroxypropylcellulose) (HPC)
[4] = endpoint: mean survival time, dose: 200.0 mg/kg/injection, schedule: Q04DX003 (ip), vehicle: saline with Tween-80
[5] = endpoint: mean survival time, dose: 400.0 mg/kg/injection, schedule: Q04DX003 (ip), vehicle: saline with Tween-80
[6] = endpoint: mean survival time, dose: 100.0 mg/kg/injection, schedule: Q04DX003 (ip), vehicle: saline
[7] = endpoint: mean survival time, dose: 200.0 mg/kg/injection, schedule: Q04DX003 (ip), vehicle: saline
[8] = endpoint: mean survival time, dose: 400.0 mg/kg/injection, schedule: Q04DX003 (ip), vehicle: saline
[9] = endpoint: mean survival time, dose: 400.0 mg/kg/injection, schedule: Q04DX003 (ip), vehicle: Klucel (hydroxypropylcellulose) (HPC)
[10] = endpoint: mean survival time, dose: 25.0 mg/kg/injection, schedule: Q01DX009 (ip), vehicle: saline with Tween-80
[11] = endpoint: mean survival time, dose: 50.0 mg/kg/injection, schedule: Q01DX009 (ip), vehicle: saline with Tween-80
[12] = endpoint: mean survival time, dose: 100.0 mg/kg/injection, schedule: Q01DX009 (ip), vehicle: saline with Tween-80
[13] = endpoint: mean survival time, dose: 200.0 mg/kg/injection, schedule: Q01DX009 (ip), vehicle: saline with Tween-80
[14] = endpoint: mean survival time, dose: 400.0 mg/kg/injection, schedule: Q01DX009 (ip), vehicle: saline with Tween-80

## CCCCCCCC(=O)OCC(=O)[C@]1(O)Cc2c(O)c3c(c(O)c2[C@@H](OC2CC(N)C(O)C(C)O2)C1)C(=O)c1c(OC)cccc1C3=O (stereo partly drawn)
endpoint: median survival time, dose: 0.25 mg/kg/injection, schedule: Q03HX024 (ip), vehicle: water
  T/C: 110 % of control
endpoint: median survival time, dose: 1.0 mg/kg/injection, schedule: Q03HX024 (ip), vehicle: water
  T/C: 109 % of control
endpoint: median survival time, dose: 1.0 mg/kg/injection, schedule: Q04DX003 (ip), vehicle: water
  T/C: 115 % of control
endpoint: median survival time, dose: 2.0 mg/kg/injection, schedule: Q03HX008 (ip), vehicle: water
  T/C: 114 % of control
endpoint: median survival time, dose: 2.0 mg/kg/injection, schedule: Q04DX003 (ip), vehicle: water
  T/C: 124 % of control
endpoint: median survival time, dose: 2.5 mg/kg/injection, schedule: Q01DX001 (ip), vehicle: water
  T/C: 121 % of control
endpoint: median survival time, dose: 2.5 mg/kg/injection, schedule: Q08DX002 (ip), vehicle: water
  T/C: 101 % of control
endpoint: median survival time, dose: 4.0 mg/kg/injection, schedule: Q01DX009 (ip), vehicle: water
  T/C: 88 % of control
endpoint: median survival time, dose: 4.0 mg/kg/injection, schedule: Q04DX003 (ip), vehicle: water
  T/C: 111 % of control
endpoint: median survival time, dose: 5.0 mg/kg/injection, schedule: Q08DX002 (ip), vehicle: water
  T/C: 121 % of control
endpoint: median survival time, dose: 10.0 mg/kg/injection, schedule: Q01DX001 (ip), vehicle: water
  T/C: 121 % of control
endpoint: median survival time, dose: 10.0 mg/kg/injection, schedule: Q08DX002 (ip), vehicle: water
  T/C: 121 % of control
endpoint: median survival time, dose: 20.0 mg/kg/injection, schedule: Q08DX002 (ip), vehicle: water
  T/C: 96 % of control

## Nc1nc(N)c2cc(S(=O)(=O)c3ccccc3)ccc2n1
endpoint: median survival time, dose: 25.0 mg/kg/injection, schedule: Q01DX009 (ip), vehicle: saline with Tween-80
  T/C: 110 % of control
endpoint: median survival time, dose: 400.0 mg/kg/injection, schedule: Q01DX009 (ip), vehicle: saline with Tween-80
  T/C: 108 % of control
endpoint: median survival time, dose: 800.0 mg/kg/injection, schedule: Q01DX009 (ip), vehicle: saline with Tween-80
  T/C: 117 % of control

## CCC(=O)Oc1ccccc1C(=O)O
endpoint: mean survival time, dose: 25.0 mg/kg/injection, schedule: Q01DX009 (ip), vehicle: Klucel (hydroxypropylcellulose) (HPC)
  T/C: 98 % of control
endpoint: mean survival time, dose: 50.0 mg/kg/injection, schedule: Q01DX009 (ip), vehicle: Klucel (hydroxypropylcellulose) (HPC)
  T/C: 98 % of control
endpoint: mean survival time, dose: 100.0 mg/kg/injection, schedule: Q01DX009 (ip), vehicle: Klucel (hydroxypropylcellulose) (HPC)
  T/C: 103 % of control

## Cc1cc(O)ccc1SC#N
endpoint: mean survival time, dose: 3.12 mg/kg/injection, schedule: Q04DX003 (ip), vehicle: saline + alcohol
  T/C: 97 % of control
endpoint: mean survival time, dose: 6.25 mg/kg/injection, schedule: Q04DX003 (ip), vehicle: saline + alcohol
  T/C: 101 % of control
endpoint: mean survival time, dose: 12.5 mg/kg/injection, schedule: Q04DX003 (ip), vehicle: saline + alcohol
  T/C: 101 % of control

## CCOC(=O)c1c(OC)cc2n(c1=O)Cc1cc3ccccc3nc1-2
endpoint: mean survival time, dose: 150.0 mg/kg/injection, schedule: Q01DX009 (ip), vehicle: saline with Tween-80
  T/C: 86 % of control
endpoint: mean survival time, dose: 225.0 mg/kg/injection, schedule: Q01DX009 (ip), vehicle: saline with Tween-80
  T/C: 89 % of control
endpoint: mean survival time, dose: 335.0 mg/kg/injection, schedule: Q01DX009 (ip), vehicle: saline with Tween-80
  T/C: 89 % of control

## O=P(O)(O)Cc1cccc2ccccc12
[1]
  T/C: 92 % of control
[2]
  T/C: 96 % of control
[3]
  T/C: 89 % of control
[4]
  T/C: 96 % of control
[5]
  T/C: 96 % of control

## CC(=N)N
[6]
  T/C: 114 % of control
[7]
  T/C: 90 % of control
[8]
  T/C: 111 % of control

## CCc1c(N)nc(N)nc1Nc1ccc(Cl)c(Cl)c1
endpoint: mean survival time, dose: 100.0 mg/kg/injection, schedule: Q01DX Z (ip), vehicle: methylcellulose (MC)
  T/C: 96 % of control

## CCO/C(C)=N/N(C)c1n[n+]([O-])ccc1C
endpoint: mean survival time, dose: 100.0 mg/kg/injection, schedule: Q04DX002 (ip), vehicle: saline
  T/C: 189 % of control
endpoint: mean survival time, dose: 200.0 mg/kg/injection, schedule: Q04DX002 (ip), vehicle: saline
  T/C: 96 % of control
endpoint: mean survival time, dose: 400.0 mg/kg/injection, schedule: Q04DX002 (ip), vehicle: saline
  T/C: 96 % of control

## O=C(Nc1ccccc1C(=O)c1ccccn1)c1ccccc1
[1]
  T/C: 104 % of control
[3]
  T/C: 98 % of control
[9]
  T/C: 101 % of control

## NC(=O)Oc1ccccc1Cl
endpoint: mean survival time, dose: 75.0 mg/kg/injection, schedule: Q04DX003 (ip), vehicle: Klucel (hydroxypropylcellulose) (HPC)
  T/C: 104 % of control
endpoint: mean survival time, dose: 150.0 mg/kg/injection, schedule: Q04DX003 (ip), vehicle: Klucel (hydroxypropylcellulose) (HPC)
  T/C: 100 % of control
endpoint: mean survival time, dose: 300.0 mg/kg/injection, schedule: Q04DX003 (ip), vehicle: Klucel (hydroxypropylcellulose) (HPC)
  T/C: 105 % of control

## COc1cc(C(=O)N(C)C2CCCCC2)cc(OC)c1OC
[2]
  T/C: 98 % of control
[4]
  T/C: 98 % of control
[5]
  T/C: 102 % of control

## Oc1c(Cl)cc(Cl)c2cccnc12
endpoint: mean survival time, dose: 12.5 mg/kg/injection, schedule: Q01DX009 (ip), vehicle: saline with Tween-80
  T/C: 92 % of control
[10]
  T/C: 90 % of control
endpoint: mean survival time, dose: 50.0 mg/kg/injection, schedule: Q01DX001 (ip), vehicle: carboxymethylcellulose (CMC)
  T/C: 98 % of control
[11]
  T/C: 92 % of control
endpoint: mean survival time, dose: 100.0 mg/kg/injection, schedule: Q01DX001 (ip), vehicle: carboxymethylcellulose (CMC)
  T/C: 91 % of control
[12]
  T/C: 94 % of control

## Cc1ccc(Nc2n[nH]c(=S)s2)cc1C
[12]
  T/C: 93 % of control
[13]
  T/C: 92 % of control
[14]
  T/C: 106 % of control

## COP(=O)(C(OC(=O)C(C)(C)C)=C(C)C)N(C)C (stereo not drawn)
[2]
  T/C: 97 % of control
[4]
  T/C: 96 % of control
[5]
  T/C: 96 % of control

## CCOC(=O)CP(=O)(OCC)OCC
endpoint: mean survival time, dose: 100.0 mg/kg/injection, schedule: Q01DX009 (ip), vehicle: saline
  T/C: 103 % of control
[6]
  T/C: 109 % of control
endpoint: mean survival time, dose: 200.0 mg/kg/injection, schedule: Q01DX009 (ip), vehicle: saline
  T/C: 106 % of control
[7]
  T/C: 102 % of control
endpoint: mean survival time, dose: 400.0 mg/kg/injection, schedule: Q01DX009 (ip), vehicle: saline
  T/C: 99 % of control
[8]
  T/C: 113 % of control

## O=Cc1cc2c(cc1Cl)OCO2
[2]
  T/C: 92 % of control
[4]
  T/C: 86 % of control
[5]
  T/C: 97 % of control

## CC(C)=CCC/C(C)=C/CNC(=O)/C=C/C(=O)O
[10]
  T/C: 98 % of control
[11]
  T/C: 93 % of control
endpoint: mean survival time, dose: 50.0 mg/kg/injection, schedule: Q04DX003 (ip), vehicle: saline with Tween-80
  T/C: 91 % of control
[12]
  T/C: 100 % of control and 90 % of control
[2]
  T/C: 94 % of control and 98 % of control
[13]
  T/C: 105 % of control
[4]
  T/C: 86 % of control
[14]
  T/C: 94 % of control
[5]
  T/C: 97 % of control

## N=C(N)c1ccc(OCCCCOc2ccc(NC(=O)Nc3cccc(S(=O)(=O)F)c3)cc2)cc1
endpoint: mean survival time, dose: 25.0 mg/kg/injection, schedule: Q01DX001 (ip), vehicle: Klucel (hydroxypropylcellulose) (HPC)
  T/C: 97 % of control
endpoint: mean survival time, dose: 50.0 mg/kg/injection, schedule: Q01DX001 (ip), vehicle: Klucel (hydroxypropylcellulose) (HPC)
  T/C: 95 % of control
endpoint: mean survival time, dose: 100.0 mg/kg/injection, schedule: Q01DX001 (ip), vehicle: Klucel (hydroxypropylcellulose) (HPC)
  T/C: 89 % of control

## C/C=C/Sc1ccccc1
endpoint: mean survival time, dose: 75.0 mg/kg/injection, schedule: Q01DX001 (ip), vehicle: carboxymethylcellulose (CMC)
  T/C: 95 % of control
endpoint: mean survival time, dose: 150.0 mg/kg/injection, schedule: Q01DX001 (ip), vehicle: carboxymethylcellulose (CMC)
  T/C: 101 % of control
endpoint: mean survival time, dose: 300.0 mg/kg/injection, schedule: Q01DX001 (ip), vehicle: carboxymethylcellulose (CMC)
  T/C: 98 % of control

## CN1CC(C(=O)NCc2ccccc2)CC2c3cccc4[nH]cc(c34)CC21 (stereo not drawn)
endpoint: mean survival time, dose: 25.0 mg/kg/injection, schedule: Q04DX003 (ip), vehicle: Klucel (hydroxypropylcellulose) (HPC)
  T/C: 96 % of control
endpoint: mean survival time, dose: 50.0 mg/kg/injection, schedule: Q04DX003 (ip), vehicle: Klucel (hydroxypropylcellulose) (HPC)
  T/C: 91 % of control
[1]
  T/C: 96 % of control
[3]
  T/C: 89 % of control
[9]
  T/C: 91 % of control

## Cc1ccc(COC(=O)Nc2ccc(C)c(NC(=O)OCc3ccc(C)cc3)c2)cc1
[12]
  T/C: 90 % of control
[14]
  T/C: 90 % of control

## CCO/C=C(\C#N)C(=O)O
[12]
  T/C: 95 % of control
[2]
  T/C: 98 % of control
[13]
  T/C: 98 % of control
[4]
  T/C: 104 % of control
[14]
  T/C: 102 % of control
[5]
  T/C: 100 % of control

## CCC(C)(C1CCC(O)CC1)C1CCC(O)CC1 (stereo not drawn)
endpoint: mean survival time, dose: 100.0 mg/kg/injection, schedule: Q01DX001 (ip), vehicle: saline
  T/C: 94 % of control
endpoint: mean survival time, dose: 200.0 mg/kg/injection, schedule: Q01DX001 (ip), vehicle: saline
  T/C: 96 % of control
endpoint: mean survival time, dose: 400.0 mg/kg/injection, schedule: Q01DX001 (ip), vehicle: saline
  T/C: 98 % of control
